Measurements: patent US8785457B2 (Cellzome Limited, priority 2009, dated 2014)

System: S6RP serine-240/244 phosphorylation
Test: In vitro Phospho-S6 cellular assay (pS6RP S240/244) in HEK293T/17 cells
Format: cell-based
Settings: Homo sapiens, 2 hours, read-out: pS6 IC50
Excerpt: Activation of mTOR signaling results in phosphorylation of several downstream targets. In cells, mTOR exists in two different protein complexes. The mTOR Complex-1 (mTORC1) phosphorylates and activates S6 Kinase 1 (S6K1) and S6 Kinase 2 (S6K2) (also known as p70S6K) which then phosphorylate S6 Ribosomal Protein (S6RP) (also known as RPS6)3. S6RP is phosphorylated on serine 235, serine 236, serine 240 and serine 244 by both pS6K1 and pS6K2. The mTOR Complex-2 (mTORC2) phosphorylates AKT on serine 473 which activates the AKT signaling pathway.
The assay measures a test compound's inhibition of S6RP serine-240/244 phosphorylation and inhibition of Akt serine-473 phosphorylation in human embryonic kidney derived HEK293T/17 cells (ATCC CRL-11268).
The HEK293T/17 cell line is maintained in DMEM media (Invitrogen catalogue number 41965-039) supplemented with 10% FCS at 37° C. in a 5% CO2 humidified incubator.
Cells are seeded in 96-well plates at 40,000 cells/well (pS6RP S240/244 assay) or 80,000 cells/well (pAkt S473 assay) in 90 μl growth media (DMEM, 2% FCS). Plates are incubated for 1 hour in a humidified incubator to allow the cells to adhere. Cells are treated with 8 concentrations of test compounds or DMSO alone for controls (final DMSO concentration 0.1%) and incubated at 37° C. for 2 hours. Then 20 μl of 5× concentrated lysis buffer (750 mM NaCl, 100 mM Tris pH7.4, 5 mM ADTA, 5 mM EGTA, 5% Triton X-100) is added, plates are sealed and incubated for 15 minutes at 4° C. with gentle shaking. After cell lysis, 25 μl cell lysate is transferred to a MesoScale plate coated with an antibody to pS6RP Ser240/244 (MesoScale Discovery K150DGD-3) or an antibody to pAkt Ser 473 (MesoScale Discovery K151DGD-3). Plates have been blocked before by incubation with 150 μl MesoScale Discovery Blocking Solution-A for 1 hour at room temperature followed by washing with 150 μl 1× Tris wash buffer per well. After the transfer of the cell lysate to the MSD plate, the pS6RP (or pAkt) protein is captured on the coated antibody by incubation at room temperature for 1 hour with gentle shaking. After the capture step the plate is washed three times with 150 μl of 1× Tris wash buffer per well. Then 25 μl detection antibody conjugated with a Sulfo-Tag is added and incubated for 1 hour at room temperature with gentle shaking. Subsequently the antibody solution is removed and the plate is washed 3 times with 150 μl×Tris wash buffer per well and 150 μl Read buffer is added. The plates are analysed on a MSD 2400 Plate Reader (MesoScale Discovery). Data analysis is performed using nonlinear regression for a sigmoidal dose-response with a variable slope.

Row | SMILES | IC50
1 | CCNC(=O)Nc1ccc(-c2nc3c(c(N4CCOC[C@@H]4C)n2)CN(C=O)C3)cc1 [Example 8, (S)-1-ethyl-3-(4-(6-formyl-4-(3-methylmorpholino)-6,7-dihydro-5H-pyrrolo[3,4-d]pyrimidin-2-yl)phenyl)urea] | 289 nM
2 | CC(C)N1Cc2nc(-c3ccc(NC(=O)NCCO)cc3F)nc(N3CCOC[C@@H]3C)c2C1 [Example 187, (S)-1-(3-fluoro-4-(6-isopropyl-4-(3-methylmorpholino)-6,7-dihydro-5H-pyrrolo[3,4-d]pyrimidin-2-yl)phenyl)-3-(2-hydroxyethyl)urea] | 563 nM
3 | C[C@H]1COCCN1c1nc(-c2ccc(NC(=O)NC3CC3)cc2)nc2c1CN(C(=O)C1CC1)C2 [Example 17, (S)-1-(4-(6-(cyclopropanecarbonyl)-4-(3-methylmorpholino)-6,7-dihydro-5H-pyrrolo[3,4-d]pyrimidin-2-yl)phenyl)-3-cyclopropylurea] | 142 nM
4 | C[C@H]1COCCN1c1nc(-c2ccc(NC(=O)NC3CC3)cc2F)nc2c1CN(C)C2 [Example 147, (S)-1-cyclopropyl-3-(3-fluoro-4-(6-methyl-4-(3-methylmorpholino)-6,7-dihydro-5H-pyrrolo[3,4-d]pyrimidin-2-yl)phenyl)urea] | 282 nM
5 | CNC(=O)Nc1ccc(-c2nc3c(c(N4CCOC[C@@H]4C)n2)CCNC3)cc1 [Example 16, (S)-1-methyl-3-(4-(4-(3-methylmorpholino)-5,6,7,8-tetrahydropyrido[3,4-d]pyrimidin-2-yl)phenyl)urea] | 297 nM
6 | CCNC(=O)Nc1ccc(-c2nc3c(c(N4CCOC[C@@H]4C)n2)CN(CC)C3)cc1 [Example 39, (S)-1-ethyl-3-(4-(6-ethyl-4-(3-methylmorpholino)-6,7-dihydro-5H-pyrrolo[3,4-d]pyrimidin-2-yl)phenyl)urea] | 140 nM
7 | CC(C)N1Cc2nc(-c3ccc(NC(=O)NC4CC4)cc3)nc(N3CCOC[C@@H]3C)c2C1 [Example 46, (S)-1-cyclopropyl-3-(4-(6-isopropyl-4-(3-methylmorpholino)-6,7-dihydro-5H-pyrrolo[3,4-d]pyrimidin-2-yl)phenyl)urea] | 147 nM
8 | CC(C)CN1CCc2c(nc(-c3ccc(NC(=O)NC4CC4)cc3)nc2N2CCOC[C@@H]2C)C1 [Example 42, (S)-1-cyclopropyl-3-(4-(7-isobutyl-4-(3-methylmorpholino)-5,6,7,8-tetrahydropyrido[3,4-d]pyrimidin-2-yl)phenyl)urea] | 104 nM
9 | CCOC(=O)N1Cc2nc(-c3ccc(NC(=O)NCCO)cc3F)nc(N3CCOCC3)c2C1 [Example 171, ethyl 2-(2-fluoro-4-(3-(2-hydroxyethyl)ureido)phenyl)-4-morpholino-5H-pyrrolo[3,4-d]pyrimidine-6(7H)-carboxylate] | 983 nM
10 | CCNC(=O)Nc1ccc(-c2nc3c(c(N4CCOC[C@@H]4C)n2)CCNC3)cc1 [Example 13, (S)-1-ethyl-3-(4-(4-(3-methylmorpholino)-5,6,7,8-tetrahydropyrido[3,4-d]pyrimidin-2yl)phenyl)urea] | 240 nM
11 | C[C@@H]1COCCN1c1nc(-c2ccc(NC(=O)NC3CC3)cc2F)nc2c1CN(C=O)C2 [Example 190, (R)-1-cyclopropyl-3-(3-fluoro-4-(6-formyl-4-(3-methylmorpholino)-6,7-dihydro-5H-pyrrolo[3,4-d]pyrimidin-2-yl)phenyl)urea] | 351 nM
12 | C[C@H]1COCCN1c1nc(-c2ccc(NC(=O)NC3CC3)cc2F)nc2c1CCNC2 [Example 163, (S)-1-cyclopropyl-3-(3-fluoro-4-(4-(3-methylmorpholino)-5,6,7,8-tetrahydropyrido[3,4-d]pyrimidin-2-yl)phenyl)urea] | 405 nM
13 | CC(C)N1Cc2nc(-c3ccc(NC(=O)NCCF)cc3F)nc(N3CCOCC3)c2C1 [Example 185, 1-(3-fluoro-4-(6-isopropyl-4-morpholino-6,7-dihyro-5H-pyrrolo[3,4-d]pyrimidin-2-yl)phenyl)-3-(2-fluoroethyl)urea] | 360 nM
14 | CC(=O)N1Cc2nc(-c3ccc(NC(=O)NC4CC4)cc3)nc(N3CCOC[C@@H]3C)c2C1 [Example 20, (S)-1-(4-(6-acetyl-4-(3-methylmorpholino)-6,7-dihydro-5H-pyrrolo[3,4-d]pyrimidin-2-yl)phenyl)-3-cyclopropylurea] | 330 nM
15 | CCNC(=O)Nc1ccc(-c2nc3c(c(N4CCOC[C@@H]4C)n2)CN(Cc2ccc(F)cc2)C3)cc1 [Example 29, (S)-1-ethyl-3-(4-(6-(4-fluorobenzyl)-4-(3-methylmorpholino)-6,7-dihydro-5H-pyrrolo[3,4-d]pyrimidin-2-yl)phenyl)urea] | 130 nM
16 | CCNC(=O)Nc1ccc(-c2nc3c(c(N4CCOC[C@@H]4C)n2)CN(CC2CC2)C3)cc1 [Example 28, (S)-1-(4-(6-(cyclopropylmethyl)-4-(3-methylmorpholino)-6,7-dihydro-5H-pyrrolo[3,4-d]pyrimidin-2-yl)phenyl)-3-ethylurea] | 72 nM
17 | CCNC(=O)Nc1ccc(-c2nc3c(c(N4CCOC[C@@H]4C)n2)CN(C)C3)c(F)c1 [Example 160, (S)-1-ethyl-3-(3-fluoro-4-(6-methyl-4-(3-methylmorpholino)-6,7-dihydro-5H-pyrrolo[3,4-d]pyrimidin-2-yl)phenyl)urea] | 355 nM
18 | CCNC(=O)Nc1ccc(-c2nc3c(c(N4CCOC[C@@H]4C)n2)CN(C(=O)C(C)C)C3)cc1 [Example 21, (S)-1-ethyl-3-(4-(6-isobutyryl-4-(3-methylmorpholino)-6,7-dihydro-5H-pyrrolo[3,4-d]pyrimidin-2-yl)phenyl)urea] | 111 nM
19 | CC(C)NC(=O)N1CCc2c(nc(-c3ccc(NC(=O)NC4CC4)cc3F)nc2N2CCOC[C@@H]2C)C1 [Example 189, (S)-2-(4-(3-cyclopropylureido)-2-fluorophenyl)-N-isopropyl-4-(3-methylmorpholino)-5,6-dihydropyrido[3,4-d]pyrimidine-7(8H)-carboxamide] | 133 nM
20 | C[C@H]1COCCN1c1nc(-c2ccc(NC(=O)NC3CC3)cc2)nc2c1CN(CC1CC1)C2 [Example 30] | 170 nM
21 | CCNC(=O)Nc1ccc(-c2nc3c(c(N4CCOC[C@@H]4C)n2)CN(S(C)(=O)=O)C3)cc1 [Example 32, (S)-1-ethyl-3-(4-(4-(3-methylmorpholino)-6-(methylsulfonyl)-6,7-dihydro-5H-pyrrolo[3,4-d]pyrimidin-2-yl)phenyl)urea] | 182 nM
22 | C[C@@H]1COCCN1c1nc(-c2ccc(NC(=O)NC3CC3)cc2F)nc2c1CN(S(C)(=O)=O)C2 [Example 191, (R)-1-cyclopropyl-3-(3-fluoro-4-(4-(3-methylmorpholino)-6-(methylsulfonyl)-6,7-dihydro-5H-pyrrolo[3,4-d]pyrimidin-2-yl)phenyl)urea] | 180 nM
23 | C[C@H]1COCCN1c1nc(-c2ccc(NC(=O)NC3CC3)cc2)nc2c1CN(C)C2 [Example 38, (S)-1-cyclopropyl-3-(4-(6-methyl-4-(3-methylmorpholino)-6,7-dihydro-5H-pyrrolo[3,4-d]pyrimidin-2-yl)phenyl)urea] | 170 nM
24 | CCNC(=O)Nc1ccc(-c2nc3c(c(N4CCOC[C@@H]4C)n2)CNCC3)cc1 [Example 12, (S)-1-ethyl-3-(4-(4-(3-methylmorpholino)-5,6,7,8-tetrahydropyrido[4,3-d]pyrimidin-2-yl)phenyl)urea] | 839 nM
25 | CCOC(=O)N1Cc2nc(-c3ccc(NC(=O)NCCF)cc3F)nc(N3CCOC[C@@H]3C)c2C1 [Example 168, (S)-ethyl 2-(2-fluoro-4-(3-(2-fluoroethyl)ureido)phenyl)-4-(3-methylmorpholino)-5H-pyrrolo[3,4-d]pyrimidine-6(7H)-carboxylate] | 97 nM
26 | COC(=O)N1Cc2nc(-c3ccc(NC(=O)NCCO)cc3F)nc(N3CCOC[C@@H]3C)c2C1 [Example 181, (S)-methyl 2-(2-fluoro-4-(3-(2-hydroxyethyl)ureido)phenyl)-4-(3-methylmorpholino)-5H-pyrrolo[3,4-d]pyrimidine-6(7H)-carboxylate] | 962 nM
27 | CC(=O)N1Cc2nc(-c3ccc(NC(=O)NC4CC4)cc3F)nc(N3CCOC[C@@H]3C)c2C1 [Example 155, (S)-1-(4-(6-acetyl-4-(3-methylmorpholino)-6,7-dihydro-5H-pyrrolo[3,4-d]pyrimidin-2-yl)-3-fluorophenyl)-3-cyclopropylurea] | 815 nM
